Source: patent publication US11938122B2, “5-[[4-[2-[5-(1-hydroxyethyl)pyridin-2-yl]ethoxy]phenyl]methyl]-1,3- thiazolidine-2,4-dione for treating nonalcoholic fatty liver disease” (Minoryx Therapeutics S.L., priority 2016, dated 2024)

Assays:
[1] = tested on: EAE mouse model; assay: Experimental autoimmune encephalitis (EAE) mouse model; type: in vivo; settings: EAE mice, highest dose (125 mg/Kg/day oral, bid)
Source text: The anti-inflammatory potential of MIN-102 was studied using an EAE mouse model, e.g., as described in Linker and Lee, Experimental & Translational Stroke Medicine 1:5 (2009). This model for neuroinflammation is a highly reproducible and long established model of multiple sclerosis. The model is based on the induction of an autoimmune reaction upon the exposure of the animals to myelin antigens. Several days after inoculation, e.g., 9-12 days, the mouse develops a relapsing-remitting or chronic disease course.
In the study, female C57Bl/6 mice were sensitized by a subcutaneous injection of myelin oligodendrocyte glycoprotein peptide fragment 35-55 (MOG35-55) in Freund's Complete Adjuvant (CFA) at the tail base. Starting at five days after disease induction, the animals were treated at three different oral doses of MIN-102, 17, 50, and 125 mg/Kg/day, using bid administration. From day five, the animals were weighed and scored for the appearance of disease symptoms. The levels of neutrophils were measured in mice from the naïve, vehicle, and the highest MIN-102 dose. Data were analyzed by one-way ANOVA followed by the Dunnett's post-hoc test versus the vehicle group (*, p <0.05). Results are presented as mean+standard error of the mean of n=10, except n=9 for the highest dose of MIN-102, and n=4 for the naïve group.

[2] = target: T1, CYP2A6 (Homo sapiens, UniProt P11509); assay: CYP inhibition, cocktail incubation, pooled human liver microsomes; type: in vitro ADME; settings: reaction 7OH-COU
T1 construct: in incubations with a pool of human liver microsomes; from tissue; host or cells: pooled human liver microsomes
T1 sequence (P11509 1-494): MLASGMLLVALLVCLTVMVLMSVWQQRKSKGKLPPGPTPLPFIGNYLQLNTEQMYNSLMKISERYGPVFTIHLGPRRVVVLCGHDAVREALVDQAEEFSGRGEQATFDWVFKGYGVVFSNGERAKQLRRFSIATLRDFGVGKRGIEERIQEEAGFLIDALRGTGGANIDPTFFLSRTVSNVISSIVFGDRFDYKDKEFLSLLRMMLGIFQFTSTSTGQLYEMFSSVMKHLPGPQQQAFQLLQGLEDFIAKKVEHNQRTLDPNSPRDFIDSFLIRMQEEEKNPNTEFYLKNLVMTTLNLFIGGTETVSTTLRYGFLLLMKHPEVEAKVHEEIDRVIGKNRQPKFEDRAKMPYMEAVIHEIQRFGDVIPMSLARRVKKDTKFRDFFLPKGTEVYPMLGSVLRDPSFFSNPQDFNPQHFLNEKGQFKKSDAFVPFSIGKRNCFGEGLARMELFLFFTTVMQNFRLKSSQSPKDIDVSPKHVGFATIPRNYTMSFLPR
Procedure: (§1) Inhibition was screened using a cocktail incubation with CYP specific substrates for eight major drug metabolizing CYP enzymes (CYPs 1A2, 2A6, 2B6, 2C8, 2C9, 2C19, 2D6 and 3A4) in incubations with a pool of human liver microsomes. In reversible inhibition, MIN-102 was incubated with buffer, microsomes, cofactor NADPH and CYP-specific substrate cocktail mix for 15 min. In TDI study, buffer and microsomes were preincubated with MIN-102 in the presence and absence of cofactor NADPH for 0 or 30 min to elucidate the possible time-dependency of inhibition. Secondary incubation was conducted with CYP-specific substrate cocktail mix for 30 min. MIN-102 was used at final concentrations of 0.01, 0.1, 1, 10, and 100 μM in both assays.

[3] = target: T2, CYP2C8 (Homo sapiens, UniProt P10632); assay: as above; type: in vitro ADME; settings: reaction OH-REPA
T2 construct: in incubations with a pool of human liver microsomes; from tissue; host or cells: pooled human liver microsomes
T2 sequence (P10632 1-490): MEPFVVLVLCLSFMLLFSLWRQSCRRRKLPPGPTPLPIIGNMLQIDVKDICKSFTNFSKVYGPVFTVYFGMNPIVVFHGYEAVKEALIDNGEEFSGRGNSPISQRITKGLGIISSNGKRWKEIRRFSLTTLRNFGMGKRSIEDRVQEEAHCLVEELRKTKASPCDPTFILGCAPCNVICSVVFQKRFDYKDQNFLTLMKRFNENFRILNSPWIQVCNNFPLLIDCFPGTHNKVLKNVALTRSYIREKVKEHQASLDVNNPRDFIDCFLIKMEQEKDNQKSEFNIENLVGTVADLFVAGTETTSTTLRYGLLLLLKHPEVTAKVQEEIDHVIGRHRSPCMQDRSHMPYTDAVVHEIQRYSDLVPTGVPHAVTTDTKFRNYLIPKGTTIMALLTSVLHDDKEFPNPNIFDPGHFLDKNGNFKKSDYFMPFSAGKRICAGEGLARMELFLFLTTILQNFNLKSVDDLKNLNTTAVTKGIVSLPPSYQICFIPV
Procedure: as §1

[4] = target: T3, CYP2C9 (Homo sapiens, UniProt P11712); assay: as above; type: in vitro ADME; settings: reaction OH-DICL
T3 construct: in incubations with a pool of human liver microsomes; from tissue; host or cells: pooled human liver microsomes
Procedure: as §1

[5] = target: T4, CYP2D6 (Homo sapiens, UniProt P10635); assay: as above; type: in vitro ADME; settings: reaction O-dem-DEX
T4 construct: in incubations with a pool of human liver microsomes; from tissue; host or cells: pooled human liver microsomes
Procedure: as §1

[6] = target: T5, CYP1A2 (Homo sapiens, UniProt P05177); assay: as above; type: in vitro ADME; settings: reaction ACET
T5 construct: in incubations with a pool of human liver microsomes; from tissue; host or cells: pooled human liver microsomes
T5 sequence (P05177 1-516): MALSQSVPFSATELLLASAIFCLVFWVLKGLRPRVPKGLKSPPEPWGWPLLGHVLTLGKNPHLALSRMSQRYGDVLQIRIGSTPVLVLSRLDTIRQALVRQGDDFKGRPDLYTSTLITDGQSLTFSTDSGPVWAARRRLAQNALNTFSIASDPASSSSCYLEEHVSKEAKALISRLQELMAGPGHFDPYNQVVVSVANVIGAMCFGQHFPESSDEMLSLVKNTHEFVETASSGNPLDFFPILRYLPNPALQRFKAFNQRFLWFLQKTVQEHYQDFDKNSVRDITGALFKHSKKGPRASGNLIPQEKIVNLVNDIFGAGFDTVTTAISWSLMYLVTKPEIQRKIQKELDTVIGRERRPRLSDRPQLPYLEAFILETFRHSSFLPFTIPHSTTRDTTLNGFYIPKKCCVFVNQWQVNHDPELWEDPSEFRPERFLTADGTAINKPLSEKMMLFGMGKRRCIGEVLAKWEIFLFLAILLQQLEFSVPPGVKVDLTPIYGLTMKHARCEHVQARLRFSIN
Procedure: as §1

[7] = MIN-102 single oral dose (SAD) pharmacokinetics in healthy subjects; settings: human, in vivo, some doses
[8] = tested on: CYP3A4; assay: CYP induction in cryopreserved human hepatocytes; type: in vitro ADME; settings: 50 μM, hepatocytes from 3 human donors
[9] = Stability in the hepatocyte incubation medium; type: in vitro ADME; settings: 50 μM, 24-hour incubation
Procedure: The stability of MIN-102 in the incubation medium was assayed in parallel at the highest test concentration (50 μM) and quantified in incubation medium.

T3 sequence (P11712 whole entry): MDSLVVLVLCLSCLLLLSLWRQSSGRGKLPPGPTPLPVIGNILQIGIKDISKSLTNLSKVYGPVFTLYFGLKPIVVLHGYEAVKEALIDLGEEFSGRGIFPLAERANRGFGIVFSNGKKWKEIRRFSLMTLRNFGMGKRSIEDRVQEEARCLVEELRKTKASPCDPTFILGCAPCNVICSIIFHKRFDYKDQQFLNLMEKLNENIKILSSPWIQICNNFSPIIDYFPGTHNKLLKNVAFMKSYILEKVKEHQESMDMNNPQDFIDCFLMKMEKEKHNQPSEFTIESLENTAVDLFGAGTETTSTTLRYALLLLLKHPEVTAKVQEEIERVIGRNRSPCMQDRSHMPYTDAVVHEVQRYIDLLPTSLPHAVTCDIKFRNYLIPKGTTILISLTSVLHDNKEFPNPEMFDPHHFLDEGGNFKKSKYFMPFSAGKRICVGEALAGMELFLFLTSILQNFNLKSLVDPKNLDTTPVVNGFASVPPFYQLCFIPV
T4 sequence (P10635 whole entry): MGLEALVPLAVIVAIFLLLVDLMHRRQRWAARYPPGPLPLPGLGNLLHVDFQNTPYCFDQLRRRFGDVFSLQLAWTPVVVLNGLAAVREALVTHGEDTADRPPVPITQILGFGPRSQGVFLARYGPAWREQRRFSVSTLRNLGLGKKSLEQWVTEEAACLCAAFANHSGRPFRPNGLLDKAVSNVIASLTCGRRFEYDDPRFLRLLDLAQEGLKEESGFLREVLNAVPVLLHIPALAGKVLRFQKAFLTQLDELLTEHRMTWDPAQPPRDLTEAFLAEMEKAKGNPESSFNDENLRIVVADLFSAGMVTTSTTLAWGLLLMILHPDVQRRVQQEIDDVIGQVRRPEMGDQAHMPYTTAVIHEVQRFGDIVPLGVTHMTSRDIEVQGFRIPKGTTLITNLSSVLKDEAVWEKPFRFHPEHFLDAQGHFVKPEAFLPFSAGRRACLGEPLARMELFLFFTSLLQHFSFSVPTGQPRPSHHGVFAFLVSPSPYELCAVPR

## CC(O)c1ccc(CCOc2ccc(CC3SC(=O)NC3=O)cc2)nc1 (racemic) [MIN-102, 5-[[4-[2-[5-(1-hydroxyethyl)pyridin-2-yl]ethoxy]phenyl]methyl]-1,3-thiazolidine-2,4-dione]
[1]
  Lymphocyte number: 3.6 ± 2.3 ×10^3 cells/μl
  N/L ratio: 0.52
  Neutrophil number: 1.9 ± 0.6 ×10^3 cells/μl
[2]
  IC50: > 100 µM
[3]
  IC50: 102 µM
[3]; read-out: Tentative Ki
  Ki: 84 µM
[4]
  IC50: 103 µM
[4]; read-out: Tentative Ki
  Ki: 52 µM
[5]
  IC50: > 100 µM
[6]
  IC50: > 100 µM
[7]
  AUC(0-inf): 20 to 400 µg·h/mL
[8]
  increase in CYP3A4 mRNA: less than 20 % of the respective positive control induction
  increase in activity of CYP3A4 probe reaction: less than 20 % of the respective positive control induction
[9]
  stability in incubation medium: remained stable
